pIC50: −log10 of the molar value. Starred links: 1 amine or outer side, 2 acyl side, 3 side chain; linkers in the order of their positions; H or OH if unused. Positions of bridges follow the written chain, without caps; N, C: chain ends. Non-standard residues stand in square brackets, D forms with d. Residues, ends and D or L forms follow the SMILES beside them. *: point of attachment. hPhe(3-Cl-4-CF3) = N[C@@H](CCc1ccc(C(F)(F)F)c(Cl)c1)C(=O)O; hPhe(3-F,4-CF3) = N[C@@H](CCc1ccc(C(F)(F)F)c(F)c1)C(=O)O; NMePhe(4-Me) = CN[C@@H](Cc1ccc(C)cc1)C(=O)O; NMeNle(6-CHF2) = CN[C@@H](CCCCC(F)F)C(=O)O; NMePhe(4-F) = CN[C@@H](Cc1ccc(F)cc1)C(=O)O; X53 = O=C([C@H](Cc1cccc(F)c1F)N[*:1])[*:2]; NMedβ3hAla = C[C@H](CC(=O)[*:2])N(C)[*:1]; Phe(3-I) = N[C@@H](Cc1cccc(I)c1)C(=O)O; Pro(4,4-F2) = O=C(O)[C@@H]1CC(F)(F)CN1; NMeGly(cBu) = CN[C@H](C(=O)O)C1CCC1; NMeY = CN[C@@H](Cc1ccc(O)cc1)C(=O)O; NMeCha = CN[C@@H](CC1CCCCC1)C(=O)O; NMeCba = CN[C@@H](CC1CCC1)C(=O)O; NMeChg = CN[C@H](C(=O)O)C1CCCCC1; NMeF = CN[C@@H](Cc1ccccc1)C(=O)O; NMeI = CC[C@H](C)[C@H](NC)C(=O)O; dNMeF = CN[C@H](Cc1ccccc1)C(=O)O; NMeD = CN[C@@H](CC(=O)O)C(=O)O; NMeL = CN[C@@H](CC(C)C)C(=O)O; NMeV = CN[C@H](C(=O)O)C(C)C; d(β3hA) = C[C@@H](N)CC(=O)O; NMeAbu = CC[C@H](NC)C(=O)O; NMeA = CN[C@@H](C)C(=O)O; NMeAib = CNC(C)(C)C(=O)O; Nle = CCCC[C@H](N)C(=O)O; Piperidide = C1CCN(*)CC1; Pra = C#CC[C@H](N)C(=O)O; Ac5c = NC1(C(=O)O)CCCC1; Aze = O=C(O)[C@@H]1CCN1; Ac4c = NC1(C(=O)O)CCC1; Aib = CC(C)(N)C(=O)O; βAla = NCCC(=O)O; Sar = CNCC(=O)O
These compounds were tested against T1, Kras and SOS1 (biotin-tagged human Kras loaded with GDP, His-tagged human SOS1) (Homo sapiens, UniProt P01116, G12D) (assay: Protein-protein interaction inhibition between Kras and SOS1 (KrasGl2D-SOS PPI) using AlphaScreen). Settings: AlphaScreen; biotin-tagged human Kras loaded with GDP, His-tagged human SOS1; read-out: KRAS G12D-SOS PPI IC50.
T1 construct: made in house; host or cells: E. coli (stated for Kras only)
Assay type: binding
Procedure, shortened: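 Energy transfer from nickel-chelate donor beads bound to His-SOS1 to streptavidin acceptor beads bound to biotin-Kras, expressed in E. coli and loaded with GDP after purification, was monitored. Donors were excited at 680 nm; singlet oxygen reaching acceptors gave emission read at 520-620 nm.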

T1 sequence (P01116 1-188 isoform P01116-2 G12D): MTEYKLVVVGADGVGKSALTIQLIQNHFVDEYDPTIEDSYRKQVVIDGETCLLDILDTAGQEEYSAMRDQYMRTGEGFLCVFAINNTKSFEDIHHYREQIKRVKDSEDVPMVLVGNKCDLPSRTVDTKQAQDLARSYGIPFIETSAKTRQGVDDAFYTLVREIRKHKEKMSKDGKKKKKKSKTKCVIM

SMILES | pIC50
CC[C@H](C)[C@@H]1NC(=O)[C@H](CC(C)C)N(C)C(=O)C[C@@H](C)N(C)C(=O)[C@H]([C@@H](C)CC)N(C)C(=O)C2(CCC2)NC(=O)[C@@H]2CC(F)(F)CN2C(=O)[C@H](CCc2ccc(C(F)(F)F)c(Cl)c2)NC(=O)CN(C)C(=O)[C@H](CC2CCCCC2)N(C)C(=O)CN(C)C(=O)CN(C)C1=O [Compound 891] (cyclo([Ac4c][NMeI][NMedβ3hAla][NMeL]I[Sar][Sar][NMeCha][Sar][hPhe(3-Cl-4-CF3)][Pro(4,4-F2)])) | 8.02
CCCC[C@@H]1NC(=O)[C@H](Cc2cccc(I)c2)NC(=O)CN(C)C(=O)[C@H](CC2CCC2)N(C)C(=O)[C@@H]2CCN2C(=O)[C@H](C)N(C)C(=O)[C@H]([C@@H](C)CC)NC(=O)[C@H](CC(C)C)N(C)C(=O)C[C@@H](C(=O)N2CCCCC2)N(C)C(=O)[C@H](CC(C)C)NC(=O)C(C)(C)N(C)C1=O [Compound 1413] ([NMeL]I[NMeA][Aze][NMeCba][Sar][Phe(3-I)][Nle][NMeAib]L[NMeD]-Piperidide; lactam N-11) | 6.72
CC[C@H](C)[C@@H]1NC(=O)[C@H](CC(C)C)N(C)C(=O)C[C@@H](C)NC(=O)[C@H](C2CCC2)N(C)C(=O)C2(CCCC2)NC(=O)[C@@H]2CCCN2C(=O)[C@H](CCc2ccc(C(F)(F)F)c(Cl)c2)NC(=O)CN(C)C(=O)[C@H](CC2CCCCC2)N(C)C(=O)CN(C)C(=O)CN(C)C1=O [Compound 183] (cyclo([Ac5c][NMeGly(cBu)][d(β3hA)][NMeL]I[Sar][Sar][NMeCha][Sar][hPhe(3-Cl-4-CF3)]P)) | 7.59
CC[C@H](C)[C@@H]1NC(=O)[C@H](CC(C)C)N(C)C(=O)C[C@@H](C(=O)N2CCCCC2)N(C)C(=O)[C@H](C2CCCCC2)N(C)C(=O)C2(CCCC2)NC(=O)[C@H](Cc2ccccc2)N(C)C(=O)[C@H](CCc2ccc(C(F)(F)F)c(Cl)c2)NC(=O)CN(C)C(=O)[C@H](CC2CCCCC2)N(C)C(=O)[C@@H]2CCN2C(=O)CN(C)C1=O [Compound 527] ([NMeL]I[Sar][Aze][NMeCha][Sar][hPhe(3-Cl-4-CF3)][NMeF][Ac5c][NMeChg][NMeD]-Piperidide; lactam N-11) | 7.42
C#CC[C@@H]1NC(=O)[C@H](Cc2cccc(I)c2)NC(=O)CN(C)C(=O)[C@H](Cc2ccc(F)cc2)N(C)C(=O)CN(C)C(=O)CN(C)C(=O)[C@H]([C@@H](C)CC)NC(=O)[C@H](CC(C)C)N(C)C(=O)C[C@@H](C(=O)N2CCCCC2)N(C)C(=O)[C@H](CC(C)C)NC(=O)C(C)(C)N(C)C1=O [Compound 1327] ([NMeL]I[Sar][Sar][NMePhe(4-F)][Sar][Phe(3-I)][Pra][NMeAib]L[NMeD]-Piperidide; lactam N-11) | 7.14
CC[C@H](C)[C@@H]1NC(=O)[C@H](C)N(C)C(=O)C[C@@H](C(=O)N(C)C)N(C)C(=O)[C@H]([C@@H](C)CC)N(C)C(=O)C2(CCCC2)NC(=O)[C@@H](Cc2ccccc2)N(C)C(=O)[C@H](CCc2ccc(C(F)(F)F)c(Cl)c2)NC(=O)CN(C)C(=O)[C@H](Cc2ccc(C)cc2)N(C)C(=O)[C@@H]2CCN2C(=O)[C@H](C)N(C)C1=O [Compound 1889] ([NMeA]I[NMeA][Aze][NMePhe(4-Me)][Sar][hPhe(3-Cl-4-CF3)][dNMeF][Ac5c][NMeI][NMeD]-NMe2; lactam N-11) | 7.01
CC[C@H](C)[C@@H]1NC(=O)[C@H](CC(C)C)N(C)C(=O)CCNC(=O)[C@H](C(C)C)N(C)C(=O)C2(CCCC2)NC(=O)[C@@H]2CCCN2C(=O)[C@H](CCc2ccc(C(F)(F)F)c(Cl)c2)NC(=O)CN(C)C(=O)[C@H](CC2CCCCC2)N(C)C(=O)CN(C)C(=O)CN(C)C1=O [Compound 979] (cyclo([Ac5c][NMeV][βAla][NMeL]I[Sar][Sar][NMeCha][Sar][hPhe(3-Cl-4-CF3)]P)) | 7.43
CCCC[C@@H]1NC(=O)[C@H](Cc2cccc(F)c2F)NC(=O)CN(C)C(=O)[C@H](Cc2ccc(OC)cc2)N(C)C(=O)[C@@H]2CCN2C(=O)[C@H](C)N(C)C(=O)[C@H]([C@@H](C)CC)NC(=O)[C@H](CC)N(C)C(=O)C[C@@H](C(=O)N2CCCCC2)N(C)C(=O)[C@H](CC(C)C)NC(=O)C(C)(C)N(C)C1=O [Compound 1256] ([NMeAbu]I[NMeA][Aze][NMeY](Me)[Sar][X53][Nle][NMeAib]L[NMeD]-Piperidide; lactam N-11) | 8.04
CC[C@H](C)[C@@H]1NC(=O)[C@H](CC(C)C)N(C)C(=O)C[C@@H](C)NC(=O)[C@H](CC(C)C)N(C)C(=O)C(C)(C)NC(=O)[C@H](CC(C)C)N(C)C(=O)[C@H](CCc2ccc(C(F)(F)F)c(F)c2)NC(=O)CN(C)C(=O)[C@H](CCCCC(F)F)N(C)C(=O)CN(C)C(=O)CN(C)C1=O [Compound 1526] (cyclo([Aib][NMeL][d(β3hA)][NMeL]I[Sar][Sar][NMeNle(6-CHF2)][Sar][hPhe(3-F,4-CF3)][NMeL])) | 7.00

From patent publication US12371454B2, “Cyclic peptide compound having Kras inhibitory action” (priority 2019, dated 2025)
